These results are taken from patent US20260008739A1, “CRYSTAL AND FORMULATION OF REDUCED COENZYME Q10” (KANEKA CORPORATION, priority 2023, published 2026).

The series is described as follows: Oxidation stability of QH crystals on storage at 40° C. and 75% RH (HPLC of reduced and oxidized coenzyme Q10). In kind it is physicochemical. The following applies: for Relative QH ratio: QH ratio before storage = 100; for Oxidizing rate: crystal stored at 40° C. and 75% RH for approximately 1 month, decrease in relative QH ratio divided by days of storage. Here is the method:
The QH crystals prepared in Examples 1 to 3 and Comparative Examples 1 and 2 above were stored at 40° C. and 75% RH in a thermostatic chamber for approximately 1 month. Before and after the storage, the reduced coenzyme Q10 content and the oxidized coenzyme Q10 content of the crystal were measured by HPLC (high performance liquid chromatography). On the basis of the measurement results, the below-described QH ratio, relative QH ratio after storage, and oxidizing rate were calculated.
• Column: AS12S05-1546WT (manufactured by YMC Co., Ltd.) 150 mm (in length) and 4.6 mm (in inner diameter) • Mobile phase: C2H3N: CH3OH=1:9 (v:v) • Detection wavelength: 290 nm • Flow rate: 1 ml/min
The “QH ratio” means the ratio of the amount of the reduced coenzyme Q10 to the total amount of the coenzyme Q10 present in the crystal, and is calculated in accordance with the following formula.
The “relative QH ratio after storage” is a value obtained by relativizing the QH ratio after storage on the basis of each of the QH ratios measured before the start of storage and after storage, assuming that the QH ratio before storage is 100. The relative QH ratio after storage is calculated in accordance with the following formula.
The “oxidizing rate” is a value obtained by dividing a change (amount of decrease) in the relative QH ratio in the period of storage by the number of days of storage, and is calculated in accordance with the following formula.

The mark [1] stands for this setting: crystal stored at 40° C. and 75% RH for 28 days.

As for `COc1c(O)c(C)c(C/C=C(\C)CC/C=C(\C)CC/C=C(\C)CC/C=C(\C)CC/C=C(\C)CC/C=C(\C)CC/C=C(\C)CC/C=C(\C)CC/C=C(\C)CCC=C(C)C)c(O)c1OC` [Comparative Example 1, reduced coenzyme Q10], the Oxidizing rate was determined as 0.48 %/day. Besides, the “Relative QH ratio” value (crystal stored at 40° C. and 75% RH for 29 days) was 86.1 (when stored %.

In the case of `COc1c(O)c(C)c(C/C=C(\C)CC/C=C(\C)CC/C=C(\C)CC/C=C(\C)CC/C=C(\C)CC/C=C(\C)CC/C=C(\C)CC/C=C(\C)CC/C=C(\C)CCC=C(C)C)c(O)c1OC` [Comparative Example 2, reduced coenzyme Q10], the Oxidizing rate is 0.42 %/day. Also, the “Relative QH ratio” value under setting [1] is reported as 88.2 (when stored %.

Consider `COc1c(O)c(C)c(C/C=C(\C)CC/C=C(\C)CC/C=C(\C)CC/C=C(\C)CC/C=C(\C)CC/C=C(\C)CC/C=C(\C)CC/C=C(\C)CC/C=C(\C)CCC=C(C)C)c(O)c1OC` [Example 1, reduced coenzyme Q10], for which the Oxidizing rate turned out to be 0.30 %/day. The “Relative QH ratio” value under setting [1] was 91.6 (when stored %.

As to `COc1c(O)c(C)c(C/C=C(\C)CC/C=C(\C)CC/C=C(\C)CC/C=C(\C)CC/C=C(\C)CC/C=C(\C)CC/C=C(\C)CC/C=C(\C)CC/C=C(\C)CCC=C(C)C)c(O)c1OC` [Example 2, reduced coenzyme Q10], the Oxidizing rate was determined as 0.26 %/day. Also, the “Relative QH ratio” value under setting [1] is recorded as 92.6 (when stored %.

For `COc1c(O)c(C)c(C/C=C(\C)CC/C=C(\C)CC/C=C(\C)CC/C=C(\C)CC/C=C(\C)CC/C=C(\C)CC/C=C(\C)CC/C=C(\C)CC/C=C(\C)CCC=C(C)C)c(O)c1OC` [Example 3, reduced coenzyme Q10], the Oxidizing rate is listed as 0.23 %/day. Further, the “Relative QH ratio” value under setting [1] was 93.5 (when stored %.
